Experimental data as given in patent US10844058B2, “Valbenazine salts and polymorphs thereof” (Neurocrine Biosciences, Inc., priority 2015, dated 2020).
Where a name gives a salt, the structure may show the parent alone. Read-outs that look alike come from different tables or passages of the source. Blank lines part the entries; values can stand above or below the molecule they belong to.

How the values were obtained:
Format in all cases: physicochemical
[1] = Gravimetric vapour sorption (GVS); conditions: for Stability to humidity GVS uptake: 25° C.; for XRPD pattern following the adsorption/desorption analysis: after GVS
Method: The Gravimetric sorption isotherms were obtained using a Hiden IGASorp moisture sorption analyser, controlled by CFRSorp software. The sample temperature was maintained at 25° C. by a Huber re-circulating water bath. The humidity was controlled by mixing streams of dry and wet nitrogen, with a total flow rate of 250 ml/min. The relative humidity (RH) was measured by a calibrated Vaisala RH probe (dynamic range of 0-95% RH), located near the sample. The weight change, (mass relaxation) of the sample as a function of % RH was constantly monitored by the microbalance (accuracy 0.001 mg). Typically 10-20 mg of sample was placed in a tared mesh stainless steel basket at room temperature. The sample was loaded and unloaded at 40% RH and 25° C. (typical room conditions). The standard isotherm was performed at 25° C. at 10% RH intervals over a 0-90% RH range.

[2] = Thermodynamic aqueous solubility; conditions: for solubility at 24 h: water, 25 °C, thermodynamic from solid
Method: The suspension was equilibrated at 25° C. for 24 hours then the pH was measured. The suspension was then filtered through a glass fibre C filter. […] Different volumes of the standard, diluted and undiluted sample solutions were injected.

[3] = Stability to humidity on storage (form by XRPD)
[4] = Phase equilibration between Form I and IV of Formula I (Example 13)
Method: The suspensions of Form and IV from the equilibration studies were taken to 25° C.

[5] = Form conversion on heating (VT-XRPD)
Excerpt: It is not clear whether a form change accompanies this loss of water, as the water is readily taken back up when the sample is returned to ambient RH.

[6] = Phase equilibration between Form I, II and IV of Formula I (Example 12); conditions: slurried 13 days
Method: About 10 mg of the mixture was then slurried in 200 μl of pre-saturated solvent at the desired temperatures for 13 days. The solids were then quickly filtered and analyzed by XRPD.

[7] = relative humidity from about 0% to about 90%
[8] = relative humidity from about 0% to about 95%, di(4-methylbenzenesulfonate)

SMILES: Br [hydrobromide]
Stability to humidity GVS uptake [1]: >3.9%

SMILES: COc1cc2c(cc1OC)[C@H]1C[C@@H](OC(=O)[C@@H](N)C(C)C)[C@H](CC(C)C)CN1CC2 [Form I of Formula II, (S)-(2R,3R,11bR)-3-isobutyl-9,10-dimethoxy-2,3,4,6,7,11b-hexahydro-1H-pyrido[2,1-a]isoquinolin-2-yl 2-amino-3-methylbutanoate dihydrochloride]
Stability to humidity GVS uptake [1]: 15.2%
XRPD pattern following the adsorption/desorption analysis ([1]; dihydrochloride): substantially changed
GVS mass increase [1, 7]: about 14%
solubility at 24 h ([2]; pH 4.1, water, at pH 4.1, read-out: Aqueous solubility): > 90 mg/mL
solubility at 24 h ([2]; 25° C., 24 hours, at the pH of the next column, read-out: Aqueous solubility mg/mL free form): > 90 mg/mL
Form after storage ([3]; 25° C./92% RH for seven days): change of form
Form after storage ([3]; 40° C./75% RH for seven days): change of form

SMILES: COc1cc2c(cc1OC)C1CC(OC(=O)C(N)C(C)C)C(CC(C)C)CN1CC2.O=C(O)C(=O)O.O=C(O)C(=O)O (stereo not drawn) [oxalate]
Stability to humidity GVS uptake [1]: 0.8%
Stability to humidity 25° C./92% RH ([3]; 25° C./92% RH): unchanged
Stability to humidity 40° C./75% RH ([3]; 40° C./75% RH): unchanged

SMILES: COc1cc2c(cc1OC)C1CC(OC(=O)C(N)C(C)C)C(CC(C)C)CN1CC2.Cc1ccc(S(=O)(=O)O)cc1.Cc1ccc(S(=O)(=O)O)cc1 (stereo not drawn) [Form I, II, and IV]
Form found by XRPD after equilibration ([6]; Acetonitrile/2% water, 25° C.): Form I
Form found by XRPD after equilibration ([6]; Acetonitrile/2% water, 50° C.): Form I
Form found by XRPD after equilibration ([6]; Acetonitrile/5% water, 5° C.): Form IV
Form found by XRPD after equilibration ([6]; Acetonitrile/5% water, 25° C.): Form I
Form found by XRPD after equilibration ([6]; Acetonitrile/5% water, 50° C.): Form I
Form found by XRPD after equilibration ([6]; Acetonitrile/10% water, 5° C.): Form IV
Form found by XRPD after equilibration ([6]; Acetonitrile/10% water, 25° C.): Form I
Form found by XRPD after equilibration ([6]; Acetonitrile/10% water, 50° C.): Form I
Form found by XRPD after equilibration ([6]; Acetonitrile, 5° C.): Form I
Form found by XRPD after equilibration ([6]; Acetonitrile, 25° C.): Form I
Form found by XRPD after equilibration ([6]; Acetonitrile, 50° C.): Form I

The next lines start with the values.

Form conversion upon exposure to gravimetric vapour sorption analysis [1]: converts to Form V
XRPD pattern following the adsorption/desorption analysis ([1]; di(4-methylbenzenesulfonate)): substantially changed
GVS mass lost ([1]; relative humidity decreased between about 15% and 0% RH): 2.0%
GVS mass lost ([1]; relative humidity decreased between about 90% and 15% RH): 1.2%
GVS mass increase [1, 7]: about 3.1%
GVS mass increase ([1]; relative humidity from about 40% to about 80%): about 0.5%
GVS mass increase ([1]; relative humidity from about 80% to about 90%): about 3.1%
SMILES: COc1cc2c(cc1OC)[C@H]1C[C@@H](OC(=O)[C@@H](N)C(C)C)[C@H](CC(C)C)CN1CC2.Cc1ccc(S(=O)(=O)O)cc1.Cc1ccc(S(=O)(=O)O)cc1 [Form VI, (S)-(2R,3R,11bR)-3-isobutyl-9,10-dimethoxy-2,3,4,6,7,11b-hexahydro-1H-pyrido[2,1-a]isoquinolin-2-yl 2-amino-3-methylbutanoate di(4-methylbenzenesulfonate)]

Hygroscopicity ([1]; GVS): substantially non-hygroscopic
Stability with respect to humidity ([1]; GVS): stable with respect to humidity
XRPD pattern following the adsorption/desorption analysis ([1]; di(4-methylbenzenesulfonate)): substantially unchanged
GVS mass increase [1, 8]: about 0.5%
solubility at 24 h ([2]; pH 5.1, water, at pH 5.1, read-out: aqueous solubility): ~18.5 mg/mL
SMILES: COc1cc2c(cc1OC)[C@H]1C[C@@H](OC(=O)[C@@H](N)C(C)C)[C@H](CC(C)C)CN1CC2.Cc1ccc(S(=O)(=O)O)cc1.Cc1ccc(S(=O)(=O)O)cc1 [Form II, (S)-(2R,3R,11bR)-3-isobutyl-9,10-dimethoxy-2,3,4,6,7,11b-hexahydro-1H-pyrido[2,1-a]isoquinolin-2-yl 2-amino-3-methylbutanoate di(4-methylbenzenesulfonate)]

Stability with respect to humidity ([1]; GVS): stable with respect to humidity
XRPD pattern following the adsorption/desorption analysis ([1]; di(4-methylbenzenesulfonate)): substantially unchanged
GVS mass lost ([1]; relative humidity decreased between about 40 and 0% RH): 1.8%
GVS mass increase [1, 8]: about 3.4%
GVS mass increase ([1]; relative humidity from about 40% to about 95%): about 1.6%
Form conversion in suspension ([4]; 25° C., overnight stirring): did not convert
Form conversion in suspension ([4]; heated to 30° C. for 2 days): conversion to Form I was then complete
Form conversion upon re-slurry ([4]; re-slurry at room temperature in acetonitrile): converts to Form I
Form conversion upon heating ([5]; heating at about 230° C.): converts to Form I
SMILES: COc1cc2c(cc1OC)[C@H]1C[C@@H](OC(=O)[C@@H](N)C(C)C)[C@H](CC(C)C)CN1CC2.Cc1ccc(S(=O)(=O)O)cc1.Cc1ccc(S(=O)(=O)O)cc1 [Form IV, (S)-(2R,3R,11bR)-3-isobutyl-9,10-dimethoxy-2,3,4,6,7,11b-hexahydro-1H-pyrido[2,1-a]isoquinolin-2-yl 2-amino-3-methylbutanoate di(4-methylbenzenesulfonate)]

XRPD pattern following the adsorption/desorption analysis ([1]; di(4-methylbenzenesulfonate)): substantially unchanged
GVS mass lost ([1]; relative humidity decreased between about 20 and 0% RH): 1.2%
GVS mass increase ([1]; relative humidity from about 10% to about 95%): about 1%
Form conversion upon heating ([5]; heating between about 110° C. and about 140° C.): converts to Form VI
SMILES: COc1cc2c(cc1OC)[C@H]1C[C@@H](OC(=O)[C@@H](N)C(C)C)[C@H](CC(C)C)CN1CC2.Cc1ccc(S(=O)(=O)O)cc1.Cc1ccc(S(=O)(=O)O)cc1 [Form V, (S)-(2R,3R,11bR)-3-isobutyl-9,10-dimethoxy-2,3,4,6,7,11b-hexahydro-1H-pyrido[2,1-a]isoquinolin-2-yl 2-amino-3-methylbutanoate di(4-methylbenzenesulfonate)]

GVS mass loss ([1]; RH lowered to 0%): ca. 12%
Aqueous solubility ([2]; at pH 4.1, dihydrochloride): > 67 mg/mL free form equivalent
Form conversion on heating (VT-XRPD) ([5]; heating): no conversion to Form I on heating
Temperature at which the material becomes amorphous (VT-XRPD) ([5]; no subsequent crystallization upon cooling): above 160 °C
SMILES: COc1cc2c(cc1OC)[C@H]1C[C@@H](OC(=O)[C@@H](N)C(C)C)[C@H](CC(C)C)CN1CC2 [Form II of Formula II, (S)-(2R,3R,11bR)-3-isobutyl-9,10-dimethoxy-2,3,4,6,7,11b-hexahydro-1H-pyrido[2,1-a]isoquinolin-2-yl 2-amino-3-methylbutanoate dihydrochloride]
